Biological target: T1, hKv3.1b (Homo sapiens, UniProt P48547)
T1 construct: expressed in transfected cells
T1 sequence (P48547 1-585 isoform P48547-2): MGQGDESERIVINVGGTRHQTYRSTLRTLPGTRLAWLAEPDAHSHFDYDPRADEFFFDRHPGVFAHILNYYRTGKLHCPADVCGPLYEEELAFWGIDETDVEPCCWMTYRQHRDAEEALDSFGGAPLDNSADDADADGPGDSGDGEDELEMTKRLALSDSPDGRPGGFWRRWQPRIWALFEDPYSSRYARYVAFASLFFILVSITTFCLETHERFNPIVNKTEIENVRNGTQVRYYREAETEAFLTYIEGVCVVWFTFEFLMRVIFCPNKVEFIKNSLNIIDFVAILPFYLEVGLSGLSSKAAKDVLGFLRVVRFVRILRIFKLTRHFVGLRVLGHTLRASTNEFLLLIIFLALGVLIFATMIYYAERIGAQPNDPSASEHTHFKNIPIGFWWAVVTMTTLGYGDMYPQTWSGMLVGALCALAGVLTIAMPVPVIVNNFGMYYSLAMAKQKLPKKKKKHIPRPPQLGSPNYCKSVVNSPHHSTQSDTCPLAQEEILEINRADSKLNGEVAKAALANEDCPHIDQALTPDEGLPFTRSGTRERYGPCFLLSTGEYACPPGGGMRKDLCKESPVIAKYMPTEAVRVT
Assay: Automated patch clamp (QPatch-16x) on HEK-293 cells stably expressing hKv3.1b
Format: cell-based
Conditions: for ECdelta5 mV: concentration needed to shift the activation threshold 5 mV; for Threshold Shift: maximum absolute hyperpolarizing shift of activation threshold at tested concentrations 0.37-30 μM
Protocol: HEK-293 cells stably expressing hKv3.1b were used for the experiments. Cells were cultured in DMEM medium supplemented with 10% Fetal Bovine Serum, 100 ug/mL Geneticidin and 100 u/mL Penicillin/Streptomycin (all from Gibco). Cells were grown to 80-90% confluency at 37° C. and 5% CO2. On the day of the experiment the cells were detached from the tissue culture flasks by Detachin, resuspended in serum free medium containing 25 mM HEPES and transferred to the cell hotel of the QPatch. The cells were used for experiments 0-5 hours after detachment.
Patch-clamp recordings were performed using the automated recording system QPatch-16x (Sophion Bioscience, Denmark). Cells were centrifuged, SFM removed and the cells were resuspended in extracellular buffer containing (in mM): 145 NaCl, 4 KCl, 1 MgCl2, 2 CaCl2, 10 HEPES and 10 glucose (added fresh on the day of experiment); pH 7.4 adjusted with NaOH, 305 mOsm adjusted with sucrose.
Single cell whole-cell recordings were carried out using an intracellular solution containing (in mM): 120 KCl, 32.25/10 KOH/EGTA, 5.374 CaCl2, 1.75 MgCl2, 10 HEPES, 4 Na2ATP (added fresh on the day), pH 7.2 adjusted with KOH, […] adjusted with sucrose. Cell membrane potentials were held at −80 mV and currents were evoked by voltage steps (200 ms duration) from −70 mV to +10 mV (in 10 mV increments). Vehicle (0.33% DMSO) or increasing concentration of compound (I) were applied and the voltage protocol was run 3 times (resulting in 3 min cpd incubation time). Five increasing concentrations of compound (I) were applied to each cell.
Leak subtraction protocol was applied at −33% of the sweep amplitude, and serial resistance values were constantly monitored.
Any cell where serial resistance exceeded 25 MOhm, membrane resistance less than 200 MOhm or current size at −10 mV less than 200 pA was eliminated from the subsequent analysis.
Data analysis was performed using Sophion's QPatch assay software in combination with Microsoft Excel™ (Redmond, Wash., USA). Current voltage relationships were plotted from the peak current at the individual voltage steps normalized to the vehicle addition at 10 mV. The voltage threshold for channel activation was defined as 5% activation of the peak current at 10 mV in presence of vehicle. The activity of the compounds was described as the ability to shift this current voltage relationship to more hyperpolarized potentials and is given as the maximum absolute shift possible at the tested concentrations (0.37, 1.11, 3.33, 10, 30 μM). Concentration response curves were plotted from the threshold shift at the individual concentrations and were fitted excel fit model 205 sigmoidal dose-response model (fit=A+((B−A)/1+((C/x)^D)))), where A is the minimum value, B the maximum value, C the EC50 value and D the slope of the curve. The concentration needed to shift the threshold 5 mV was readout from this curve (ECdelta5 mV).

Row | SMILES | ECdelta5 mV [nM] | Threshold Shift [mV]
1 | Cc1ccc(S(=O)(=O)n2ccc(C(=O)NCc3ncon3)c2)cc1 [Compound 57, 1-(4-methylbenzene-1-sulfonyl)-N-[(1,2,4-oxadiazol-3-yl)methyl]-1H-pyrrole-3-carboxamide] | 3600 | 14
2 | Cc1ccc(S(=O)(=O)n2ccc(C(=O)NCc3cnc(Cl)cn3)c2)cc1 [Compound 89, N-[(5-chloropyrazin-2-yl)methyl]-1-(4-methylbenzene-1-sulfonyl)-1H-pyrrole-3-carboxamide] | 660 | 23
3 | COc1ccc(S(=O)(=O)n2ccc(C(=O)NCc3ncc(C)o3)c2)cc1 [Compound 73, 1-(4-methoxybenzene-1-sulfonyl)-N-[(5-methyl-1,3-oxazol-2-yl)methyl]-1H-pyrrole-3-carboxamide] | 2100 | 13
4 | COc1ccc(S(=O)(=O)n2ccc(C(=O)NCc3cnc(C)cn3)c2)c(Cl)c1 [Compound 104, 1-(2-chloro-4-methoxy-phenyl)sulfonyl-N-[(5-methylpyrazin-2-yl)methyl]pyrrole-3-carboxamide] | 1000 | 31
5 | Cc1cnc(CNC(=O)c2ccn(S(=O)(=O)c3ccccc3)c2)c(C)n1 [Compound 111, 1-(benzenesulfonyl)-N-[(3,5-dimethylpyrazin-2-yl)methyl]-1H-pyrrole-3-carboxamide] | 2900 | 21
6 | Cc1ccc(S(=O)(=O)n2ccc(C(=O)NCc3ncccc3F)c2)cc1 [Compound 11, N-[(3-fluoro-2-pyridyl)methyl]-1-(p-tolylsulfonyl) pyrrole-3-carboxamide] | 1300 | 16
7 | Cc1ccc(S(=O)(=O)n2ccc(C(=O)NCc3cn(C)nn3)c2)cc1 [Compound 41, N-[(1-methyltriazol-4-yl)methyl]-1-(p-tolylsulfonyl)pyrrole-3-carboxamide] | 3100 | 17
8 | Cc1ccc(S(=O)(=O)n2ccc(C(=O)NCc3cnn(C)n3)c2)cc1 [Compound 109, 1-(4-methylbenzene-1-sulfonyl)-N-[(2-methyl-2H-1,2,3-triazol-4-yl)methyl]-1H-pyrrole-3-carboxamide] | 1200 | 29
9 | Cc1cc(CNC(=O)c2ccn(S(=O)(=O)c3ccccc3)c2)on1 [Compound 84, 1-(benzenesulfonyl)-N-[(3-methyl-1,2-oxazol-5-yl)methyl]-1H-pyrrole-3-carboxamide] | 4600 | 12
10 | Cc1ccc(CNC(=O)c2ccn(S(=O)(=O)c3ccccc3)c2)nc1 [Compound 83, 1-(benzenesulfonyl)-N-[(5-methylpyridin-2-yl)methyl]-1H-pyrrole-3-carboxamide] | 5000 | 13
11 | Cc1ccc(S(=O)(=O)n2ccc(C(=O)NCc3cc(C)on3)c2)cc1 [Compound 32, N-[(5-methylisoxazol-3-yl)methyl]-1-(p-tolylsulfonyl) pyrrole-3-carboxamide] | 1300 | 16
12 | COc1ccnc(CNC(=O)c2ccn(S(=O)(=O)c3ccc(C)cc3)c2)c1 [Compound 19, N-[(4-methoxy-2-pyridyl)methyl]-1-(p-tolylsulfonyl) pyrrole-3-carboxamide] | 2100 | 11
13 | O=C(NCc1cnccn1)c1ccn(S(=O)(=O)c2ccccc2F)c1 [Compound 59, 1-(2-fluorobenzene-1-sulfonyl)-N-[(pyrazin-2-yl)methyl]-1H-pyrrole-3-carboxamide] | 2000 | 14
14 | Cc1cnc(CNC(=O)c2ccn(S(=O)(=O)c3ccccc3C)c2)o1 [Compound 80, 1-(2-methylbenzene-1-sulfonyl)-N-[(5-methyl-1,3-oxazol-2-yl)methyl]-1H-pyrrole-3-carboxamide] | 2800 | 12
15 | COc1ccc(S(=O)(=O)n2ccc(C(=O)NCc3cnn(C)c3)c2)cc1 [Compound 69, 1-(4-methoxybenzene-1-sulfonyl)-N-[(1-methyl-1H-pyrazol-4-yl)methyl]-1H-pyrrole-3-carboxamide] | 3000 | 18
16 | Cn1ccc(CNC(=O)c2ccn(S(=O)(=O)c3ccc(F)cc3)c2)n1 [Compound 63, 1-(4-fluorobenzene-1-sulfonyl)-N-[(1-methyl-1H-pyrazol-3-yl)methyl]-1H-pyrrole-3-carboxamide] | 2200 | 13
17 | Cc1cnc(CNC(=O)c2ccn(S(=O)(=O)c3ccccc3F)c2)cn1 [Compound 4, 1-(2-fluorophenyl)sulfonyl-N-[(5-methylpyrazin-2-yl)methyl]pyrrole-3-carboxamide] | 3100 | 17
18 | Cc1cnc(CNC(=O)c2ccn(S(=O)(=O)c3ccc(F)c(C)c3)c2)cn1 [Compound 101, 1-(4-fluoro-3-methyl-phenyl)sulfonyl-N-[(5-methylpyrazin-2-yl)methyl]pyrrole-3-carboxamide] | 2000 | 23
19 | Cc1cccc(S(=O)(=O)n2ccc(C(=O)NCc3ccn(C)n3)c2)c1 [Compound 60, 1-(3-methylbenzene-1-sulfonyl)-N-[(1-methyl-1H-pyrazol-3-yl)methyl]-1H-pyrrole-3-carboxamide] | 2200 | 16
20 | Cc1noc(CNC(=O)c2ccn(S(=O)(=O)c3ccccc3C)c2)n1 [Compound 75, 1-(2-methylbenzene-1-sulfonyl)-N-[(3-methyl-1,2,4-oxadiazol-5-yl)methyl]-1H-pyrrole-3-carboxamide] | 3200 | 14
21 | Cc1ccc(S(=O)(=O)n2ccc(C(=O)NCc3cc(C)ccn3)c2)cc1 [Compound 16, N-[(4-methyl-2-pyridyl)methyl]-1-(p-tolylsulfonyl)pyrrole-3-carboxamide] | 3000 | 16
22 | Cc1ccc(S(=O)(=O)n2ccc(C(=O)NCc3cnc(C)cn3)c2F)cc1 [Compound 88, 2-fluoro-1-(4-methylbenzene-1-sulfonyl)-N-[(5-methylpyrazin-2-yl)methyl]-1H-pyrrole-3-carboxamide] | 2000 | 23
23 | Cc1ccc(S(=O)(=O)n2ccc(C(=O)NCc3cncnc3)c2)cc1 [Compound 58, 1-(4-methylbenzene-1-sulfonyl)-N-[(pyrimidin-5-yl)methyl]-1H-pyrrole-3-carboxamide] | 2200 | 22

Source: US20200131156A1, “ARYLSULFONYLPYROLECARBOXAMIDE DERIVATIVES AS Kv3 POTASSIUM CHANNEL ACTIVATORS” (H. Lundbeck A/S, priority 2018, published 2020)
